Data set [1] is described as follows: Solubility (physico-chemical properties). The class given is physicochemical.
Data set [2] concerns Mycobacterium smegmatis SANK 75075. Nature of the data set: Disk assay against Mycobacterium smegmatis. The format is cell-based. The following applies: Mycolicibacterium smegmatis, SANK75075, 40 μg of test substance per paper disk of 8 mm, read-out: inhibitory zone (circle) diameter. The source says: Compound A-500359E, Compound A-500359F, the amide derivative of Compound A-500359F, Compound A-500359H, Compound A-500359J and Compound A-500359M-3 of the present invention thus available are novel compounds which have not been described in the literature. Their growth inhibitory activity against general gram positive bacteria or gram negative bacteria can be determined by the disk assay method using normal agar medium (product of Eiken Chemical) or heart infusion agar medium (product of Difco Laboratories). Growth inhibitory activity against Mycobacteria, gram positive bacteria belonging to the Actinonycetales, can be determined similarly on the above-described medium added further with glycerin.
So-called disk assay was conducted using 40 μg of a test substance per paper disk of 8 mm.
So-called Disk assay (“Experimental Agricultural Chemistry”. ed. by Agricultural Chemistry Class/Agriculture Dept./Tokyo Univ., 3rd edition, Volume II, published by Asakura Shoten in 1978) was conducted using 40 μg of a test substance per paper disk of 8 mm.

For data set [3], the system named is Mycobacterium smegmatis Strain SANK 75075. Nature of the data set: Minimum inhibitory concentration against Mycobacterium smegmatis (agar plate dilution). The following applies: Mycolicibacterium smegmatis; Mycobacterium smegmatis SANK 75075; nutrient agar containing 5% glycerol; 37° C. for 18 hours. The format is cell-based. As for the experimental part:
The minimum inhibitory concentration of preferred compounds of the invention against Mycobacterium smegmatis Strain SANK 75075 was determined in accordance with the process described below. The concentration of the compound to be tested was set at four stages by four-fold dilution starting from 1000 μg/ml (1000 μg/ml, 250 μg/ml, 62 μg/ml and 15 μg/ml). A 1 ml portion of the diluted sample of each stage was poured into a Petri dish (“Terumo Petri dish”, 90×20 mm). A nutrient agar medium (9 ml, product of Eiken Chemical) containing 5% glycerol was added and they were mixed to prepare a plate medium. A test microorganism Mycobacterium smegmatis SANK 75075 was precultured overnight at 37° C. on a trypto-soy broth (T.S.B) medium (product of Eiken Chemical) containing 5% glycerol. On the testing day, the microorganism solution was diluted 100-fold with T.S.B. and one loopful of the diluted culture was streaked onto the plate medium. After cultivation at 37° C. for 18 hours, the minimum concentration (MIC) of the test substance inhibiting the growth of the microorganism was determined.

The subject of data set [4] is Mycobacterium avium Strain NIHJ1605. Nature of the data set: Minimum inhibitory concentration against Mycobacterium avium (broth dilution). The following applies: NIHJ1605, 144 h; Mycobacterium avium NIHJ 1605; Middleblook 7H9 broth; aerobic culture at 37° C. for 6 days. The class given is cell-based.

Converted amounts (≈) assume the structure as drawn.

On to `COC(=O)C1=CC(O)C(O)C(OC(C(N)=O)C2OC(n3ccc(=O)[nH]c3=O)C(O)C2OC)O1` (stereo not drawn) [A-500359E], for which, in data set [1], the Solubility in chloroform result is given as “insoluble”, the Solubility in methanol entry is on record as “slightly soluble”, the “Solubility in normal hexane” value is reported as “insoluble” and the Solubility in water result was “soluble”. Moreover, the zone of inhibition at 40 µg/disc in data set [2] is 12 mm.
As for `COC1C(O)C(n2ccc(=O)[nH]c2=O)OC1C(OC1OC(C(=O)O)=CC(O)C1O)C(N)=O` (stereo not drawn) [A-500359F], in data set [1], the Solubility in chloroform result is reported as “insoluble”, the Solubility in methanol entry is on record as “slightly soluble”, the “Solubility in normal hexane” value is reported as “insoluble” and the Solubility in water entry is listed as “soluble”.
For the compound `NC(=O)C(OC1OC(C(=O)O)=CC(O)C1O)C1OC(n2ccc(=O)[nH]c2=O)C(O)C1O` (stereo not drawn) [A-500359H], in data set [1], the Solubility in chloroform result is “insoluble”, the Solubility in methanol result is reported as “slightly soluble”, the “Solubility in normal hexane” value is recorded as “insoluble” and the Solubility in water result is reported as “soluble”.
`NC(=O)C(OC1OC(C(=O)O)C(O)C(O)C1O)C1OC(n2ccc(=O)[nH]c2=O)C(O)C1O` (stereo not drawn) [A-500359J]: in data set [1], the Solubility in chloroform result is “insoluble”, the Solubility in methanol result is given as “slightly soluble”, the “Solubility in normal hexane” value is “insoluble” and the Solubility in water result is listed as “soluble”.
As for `C=CCC(NC(=O)C1=CC(O)C(O)C(OC(C(N)=O)C2OC(n3ccc(=O)[nH]c3=O)C(O)C2OC)O1)C(=O)O` (stereo not drawn) [A-500359M-3], in data set [1], the Solubility in chloroform result is recorded as “insoluble”, the Solubility in methanol entry is listed as “soluble”, the “Solubility in normal hexane” value is “insoluble” and the Solubility in water entry was “soluble”. Moreover, in data set [2], the zone of inhibition at 40 µg/disc turned out to be 12 mm.
Turning to `CO[C@H]1[C@@H](O)[C@H](n2ccc(=O)[nH]c2=O)O[C@@H]1[C@@H](O[C@H]1OC(C(=O)N[C@H]2CCCCNC2=O)=C[C@H](O)[C@@H]1O)C(N)=O` [Capuramycin, capuramycin, reference compound], the MIC (as a rule, the lowest concentration found to suppress growth) in data set [3] came out at 12.5 µg/mL (≈ 21.9 µM); in data set [4], 8 µg/mL (≈ 14 µM).
`CCCCCCCCC(=O)O[C@@H]1[C@H](OC)[C@@H]([C@@H](O[C@H]2OC(C(=O)N[C@H]3CCC[C@@H](C)NC3=O)=C[C@H](O)[C@@H]2O)C(N)=O)O[C@H]1n1ccc(=O)[nH]c1=O` [Exemp. Compound No. 6] gave an MIC in data set [3] of 3.1 µg/mL (≈ 4.28 µM).
Turning to `CCCCCCCCCC(=O)O[C@@H]1[C@H](OC)[C@@H]([C@@H](O[C@H]2OC(C(=O)N[C@H]3CCC[C@@H](C)NC3=O)=C[C@H](O)[C@@H]2O)C(N)=O)O[C@H]1n1ccc(=O)[nH]c1=O` [Exemp. Compound No. 7], the MIC in data set [3] worked out at 6.2 µg/mL (≈ 8.4 µM). This MIC is about 2-fold higher than that of the compound before.
`CCCCCCCCCCCCCCCC(=O)O[C@@H]1[C@H](OC)[C@@H]([C@@H](O[C@H]2OC(C(=O)N[C@H]3CCC[C@@H](C)NC3=O)=C[C@H](O)[C@@H]2O)C(N)=O)O[C@H]1n1ccc(=O)[nH]c1=O` [Exemp. Compound No. 11]: the minimum inhibitory concentration (MIC) in data set [3] came out at 6.2 µg/mL (≈ 7.54 µM).
On the same count and under the same terms, next, `CO[C@H]1[C@@H](OC(=O)CC(c2ccccc2)c2ccccc2)[C@H](n2ccc(=O)[nH]c2=O)O[C@@H]1[C@@H](O[C@H]1OC(C(=O)N[C@H]2CCC[C@@H](C)NC2=O)=C[C@H](O)[C@@H]1O)C(N)=O` [Exemp. Compound No. 21]: 6.2 µg/mL (≈ 7.83 µM); `CCCCCCCCCCCCCCCC(=O)O[C@@H]1[C@H](OC)[C@@H]([C@@H](O[C@H]2OC(C(=O)N[C@H]3CCCCNC3=O)=C[C@H](O)[C@@H]2O)C(N)=O)O[C@H]1n1ccc(=O)[nH]c1=O` [Exemp. Compound No. 53]: 6.2 µg/mL (≈ 7.67 µM).
Still for that read-out and setting: next, `CCCCCCCCCCCCCCCC(=O)O[C@H]1C=C(C(=O)N[C@H]2CCCCNC2=O)O[C@H](O[C@@H](C(N)=O)[C@H]2O[C@@H](n3ccc(=O)[nH]c3=O)[C@H](O)[C@@H]2OC)[C@H]1O` [Exemp. Compound No. 135]: 1.5 µg/mL (≈ 1.86 µM); `CCCCCCC(=O)O[C@@H]1[C@@H](O[C@@H](C(N)=O)[C@H]2O[C@@H](n3ccc(=O)[nH]c3=O)[C@H](O)[C@@H]2OC)OC(C(=O)N[C@H]2CCCCNC2=O)=C[C@@H]1OC(=O)CCCCCC` [Exemp. Compound No. 280]: 3.1 µg/mL (≈ 3.9 µM).
In the case of `COC1C(O)C(n2ccc(=O)[nH]c2=O)OC1C(OC1OC(C(N)=O)=CC(O)C1O)C(N)=O` (stereo not drawn) [amide derivative of compound A-500359F], in data set [1], the Solubility in chloroform entry is given as “insoluble”, the Solubility in methanol entry is “slightly soluble”, the “Solubility in normal hexane” value is on record as “insoluble” and the Solubility in water result was “soluble”. Besides, the zone of inhibition at 40 µg/disc in data set [2] is 12 mm.

These data come from patent US6472384B1, “Antimicrobial compounds” (Sankyo Company, Limited, priority 1998, dated 2002).
